Patent US9765075B2, “Substituted bridged urea analogs as sirtuin modulators” (GLAXOSMITHKLINE LLC, priority 2013, dated 2017)
Read-outs that look alike come from different tables or passages of the source.

Molecular target: T1, SIRT1 (Homo sapiens, UniProt Q96EB6)
T1 sequence (Q96EB6 1-747): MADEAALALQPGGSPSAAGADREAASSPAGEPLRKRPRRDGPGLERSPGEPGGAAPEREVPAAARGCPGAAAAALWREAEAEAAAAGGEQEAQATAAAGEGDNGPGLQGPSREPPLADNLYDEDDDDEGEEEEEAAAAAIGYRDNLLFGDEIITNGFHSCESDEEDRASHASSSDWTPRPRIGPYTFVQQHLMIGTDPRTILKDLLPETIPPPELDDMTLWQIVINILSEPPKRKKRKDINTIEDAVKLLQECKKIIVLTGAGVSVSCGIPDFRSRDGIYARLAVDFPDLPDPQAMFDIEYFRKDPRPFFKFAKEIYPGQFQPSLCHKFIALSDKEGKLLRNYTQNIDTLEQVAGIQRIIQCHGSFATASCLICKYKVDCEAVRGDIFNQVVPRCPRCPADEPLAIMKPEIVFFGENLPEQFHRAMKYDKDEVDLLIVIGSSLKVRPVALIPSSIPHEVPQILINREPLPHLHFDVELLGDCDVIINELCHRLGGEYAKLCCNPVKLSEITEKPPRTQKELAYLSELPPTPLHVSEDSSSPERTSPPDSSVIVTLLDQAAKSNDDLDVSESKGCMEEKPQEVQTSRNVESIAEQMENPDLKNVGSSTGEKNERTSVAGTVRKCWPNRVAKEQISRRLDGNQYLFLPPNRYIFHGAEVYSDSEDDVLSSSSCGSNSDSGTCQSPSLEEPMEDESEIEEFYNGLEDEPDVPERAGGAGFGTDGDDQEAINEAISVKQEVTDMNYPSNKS
Experiment: Trp mass spectrometry assay (SIRT1 activation)
Format: biochemical
Conditions: for Emax: percent maximum fold activation of SIRT1, read-out: Tryp % Fold Act
Method in brief: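 Activation is expressed as EC1.5, the concentration raising activity 50% above DMSO control, and as maximum percent of control. Mass-spec readout was OAADPR or deacetylated Trp peptide after a formic-acid-quenched 25-min, 25 °C reaction: 10 nM bacterially expressed His-SIRT1, 0.5 μM acetyl-p53-derived peptide, 120 μM NAD+, pH 7.5 HEPES with […].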

[1] = concentration of test compound that results in 150% activation of SIRT1, Trp peptide substrate
[2] = Trp mass spectrometry assay, EC1.5 = concentration giving 150% activation of SIRT1
[3] = Trp mass spectrometry assay, EC1.5 = concentration of test compound that results in 150% activation of SIRT1

Compound | Tryp AVG EC1.5 (μM) [1] | Emax (Trp peptide substrate) [%] | Tryp AVG EC1.5 (μM) [2] | Emax (Trp mass spectrometry assay) [%] | Tryp AVG EC1.5 (μM) [3]
O=C(Nc1ccc(F)cn1)N1c2nc(-c3cccc(CC(O)CO)c3)ccc2N2CC[C@H]1C2 (some centres unmarked) [Example 356] | A (EC1.5<1 μM) | ≥ 150 |  |  | 
O=C(NCCCCc1ccccc1)N1c2nc(-c3cccc(C(F)(F)F)c3)ccc2N2CC[C@H]1C2 [Example 600] | B (EC1.5 1-25 μM) | ≥ 150 |  |  | 
CN(C)[C@H]1CCN(c2ccc3c(n2)N(C(=O)Nc2cccnc2)[C@H]2CCN3C2)C1 [Example 242] | B (EC1.5 1-25 μM) | ≥ 150 |  |  | 
CC(C)(C)OC(=O)NCc1ccc(NC(=O)N2c3nc(-c4cccc(C(F)(F)F)c4)ccc3N3CCC[C@H]2C3)cc1 [Example 445] | A (EC1.5<1 μM) | ≥ 150 |  |  | 
O=C(Nc1ccc(Br)c(-c2cnco2)c1)N1c2nc(-c3cccc(C(F)(F)F)c3)ccc2N2CC[C@H]1C2 [Example 672] |  |  | A (EC1.5<1 μM) | ≥ 150 | 
O=C(Nc1ccncn1)N1c2nc(N3CCCC(C(F)(F)F)C3)ccc2N2CCC[C@H]1C2 (some centres unmarked) [Example 294] | B (EC1.5 1-25 μM) | ≥ 150 |  |  | 
O=C(Nc1nnc(-c2ccncc2)s1)N1c2nc(-c3cccc(C(F)(F)F)c3)ccc2N2CC[C@H]1C2 [Example 733] |  |  | A (EC1.5<1 μM) | ≥ 150 | 
COc1cc(NC(=O)N2c3nc(-c4ccnc(N5CC[C@H](F)C5)c4)ccc3N3CC[C@H]2C3)ncn1 [Example 437] | B (EC1.5 1-25 μM) | ≥ 150 |  |  | 
O=C(Nc1ccc(Oc2ccccc2)cc1)N1c2nc(-c3cccc(C(F)(F)F)c3)ccc2N2CC[C@H]1C2 [Example 641] |  |  | C (EC1.5>25 μM) | < 150 | 
CN(C)c1ccc(-c2ccc3c(n2)N(C(=O)Nc2cnccn2)[C@H]2CCN3C2)cn1 [Example 458] | B (EC1.5 1-25 μM) | ≥ 150 |  |  | 
Cc1nc(NC(=O)N2c3nc(-c4cccc(N(C)C)c4)ccc3N3CCC[C@H]2C3)sc1C [Example 383] | A (EC1.5<1 μM) | ≥ 150 |  |  | 
O=C(Nc1ccncn1)N1c2nc(-c3cccc(Cl)c3)ccc2N2CCC1CC2 [Example 534] | B (EC1.5 1-25 μM) | ≥ 150 |  |  | 
O=C(Nc1ccccn1)N1c2nc(-c3cccc(C(F)(F)F)c3)ccc2N2CCC[C@@H]1C2 [Example 272] | B (EC1.5 1-25 μM) | ≥ 150 |  |  | 
C#Cc1ccc(NC(=O)N2c3nc(-c4ccc(C5(C(F)(F)F)N=N5)cc4)ccc3N3CC[C@H]2C3)nc1 [Example 807] |  |  | C (EC1.5>25 μM) | < 150 | 
O=C(Nc1nnc(-c2ccccc2)s1)N1c2nc(-c3cccc(C(F)(F)F)c3)ccc2N2CC[C@H]1C2 [Example 648] |  |  | A (EC1.5<1 μM) | ≥ 150 | 
CC(C)(C)OC(=O)NCC#Cc1cc(NC(=O)N2c3nc(-c4cccc(C(F)(F)F)c4)ccc3N3CCC[C@H]2C3)cc(-c2cnco2)c1 [Example 760] |  |  | A (EC1.5<1 μM) | ≥ 150 | 
Cc1cc(OCC(O)CO)nc(NC(=O)N2c3nc(-c4cccc(F)c4)ccc3N3CC[C@H]2C3)n1 (some centres unmarked) [Example 64] |  |  |  | ≥ 150 | 
O=C(Nc1ccncn1)N1c2nc(C3CCCC(C(F)(F)F)C3)ccc2N2CC[C@H]1C2 (some centres unmarked) [Example 98] |  |  |  | ≥ 150 | B (EC1.5 1-25 μM)
O=C(Nc1cccc(-c2cnco2)c1)N1c2cc(-c3cccc(C(F)(F)F)c3)ccc2N2CC[C@H]1C2 [Example 786] |  |  | B (EC1.5 1-25 μM) | ≥ 150 | 
COc1cc(NC(=O)N2c3nc(-c4cncc(F)c4)ccc3N3CCC[C@H]2C3)ncn1 [Example 404] | A (EC1.5<1 μM) | ≥ 150 |  |  | 
O=C(Nc1cnccn1)N1c2nc(-c3cncc(C(F)(F)F)c3)ccc2N2CCC[C@H]1C2 [Example 452] | A (EC1.5<1 μM) | ≥ 150 |  |  | 
COc1cc(NC(=O)N2c3nc(-c4cncc(C(F)(F)F)c4)ccc3N3C[C@@H](O)[C@H]2C3)nc(OC)n1 [Example 704] |  |  | B (EC1.5 1-25 μM) | ≥ 150 | 
O=C(Nc1ccc(F)cn1)N1c2nc(-c3cncc(Cl)c3)ccc2N2CC[C@H]1C2 [Example 261] | A (EC1.5<1 μM) | ≥ 150 |  |  | 
CS(=O)(=O)Nc1cccc(NC(=O)N2c3nc(-c4cccc(C(F)(F)F)c4)ccc3N3CC[C@H]2C3)c1 [Example 642] |  |  | A (EC1.5<1 μM) | ≥ 150 | 

Compound | Tryp AVG EC1.5 (μM) [1] | Emax (Trp peptide substrate) [%] | Tryp AVG EC1.5 (μM) [2] | Emax (Trp mass spectrometry assay) [%] | Tryp AVG EC1.5 (μM) [3]
CS(=O)(=O)c1cccc(-c2ccc3c(n2)N(C(=O)Nc2cnccn2)[C@H]2CCN3C2)c1 [Example 415] | A (EC1.5<1 μM) | ≥ 150 |  |  | 
Cc1cncc(NC(=O)N2c3nc(N4CCCC(C(F)(F)F)C4)ccc3N3CCC[C@@H]2C3)c1 (some centres unmarked) [Example 303] | B (EC1.5 1-25 μM) | ≥ 150 |  |  | 
CCCn1cc(-c2ccc3c(n2)N(C(=O)Nc2cccnc2)[C@H]2CCN3C2)cn1 [Example 487] | B (EC1.5 1-25 μM) | ≥ 150 |  |  | 
O=C(Nc1cccc(-c2cnco2)c1)N1c2nc(-c3cccc(Cl)c3)ccc2N2CCC1CC2 [Example 497] | A (EC1.5<1 μM) | ≥ 150 |  |  | 
O=C(Nc1ccccn1)N1c2nc(-c3cccc(OC[C@@H](O)CO)c3)ccc2N2CC[C@H]1C2 [Example 155] |  |  |  | ≥ 150 | B (EC1.5 1-25 μM)
COc1cc(-c2cccc(C(F)(F)F)c2)nc2c1N1CC[C@@H](C1)N2C(=O)Nc1nc(C)c(C)s1 [Example 161] |  |  |  | ≥ 150 | A (EC1.5<1 μM)
N#Cc1cccc(-c2ccc3c(n2)N(C(=O)Nc2ccc(F)cn2)[C@@H]2CCCN3C2)c1 [Example 227] | B (EC1.5 1-25 μM) | ≥ 150 |  |  | 
COc1cc(NC(=O)N2c3nc(-c4cccc(N5CCC(F)(F)C5)c4)ccc3N3CC[C@H]2C3)ncn1 [Example 256] | B (EC1.5 1-25 μM) | ≥ 150 |  |  | 
O=C(Nc1ccc(F)cn1)N1c2nc(-c3ccccc3C(F)(F)F)ccc2N2CC[C@H]1C2 [Example 123] |  |  |  | < 150 | C (EC1.5>25 μM)
O=C(Nc1ccccn1)N1c2nc(-c3cccc(N4CCOCC4)c3)ccc2N2CCC[C@H]1C2 [Example 536] | B (EC1.5 1-25 μM) | ≥ 150 |  |  | 
COc1cc(-c2cccc(Cl)c2)nc2c1N1CC[C@@H](C1)N2C(=O)Nc1cnccn1 [Example 396] | A (EC1.5<1 μM) | ≥ 150 |  |  | 
O=C(Nc1cccc(-c2cnco2)c1)N1c2nc(-c3cncc(F)c3)ccc2N2CC[C@H]1C2 [Example 722] |  |  | A (EC1.5<1 μM) | ≥ 150 | 
CCC(=O)c1cccc(NC(=O)N2c3nc(-c4cccc(C(F)(F)F)c4)ccc3N3CC[C@H]2C3)c1 [Example 714] |  |  | A (EC1.5<1 μM) | ≥ 150 | 
O=C(Nc1ccnc(OCC(O)CO)n1)N1c2nc(-c3cccc(Cl)c3)ccc2N2CC[C@H]1C2 (some centres unmarked) [Example 54] |  |  |  | ≥ 150 | 
Cc1cnc(NC(=O)N2c3nc(N4CCCC(C(F)(F)F)C4)ccc3N3CCC[C@@H]2C3)s1 (some centres unmarked) [Example 311] | C (EC1.5>25 μM) | < 150 |  |  | 
CCc1nnc(NC(=O)N2c3nc(-c4cccc(C(F)(F)F)c4)ccc3N3CC[C@H]2C3)s1 [Example 647] |  |  | A (EC1.5<1 μM) | ≥ 150 | 
O=C(Nc1ccc(F)cn1)N1c2nc(-c3cccc(C(F)(F)F)c3)ccc2N2CC[C@@H]1C2 [Example 203] |  |  |  | ≥ 150 | B (EC1.5 1-25 μM)
O=C(Nc1ccccn1)N1c2nc(-c3ccnc(N4CC[C@@H](F)C4)c3)ccc2N2CC[C@H]1C2 [Example 448] | B (EC1.5 1-25 μM) | ≥ 150 |  |  | 
CC(C)(C)OC(=O)NCc1cccc(-c2ccc3c(n2)C(C(=O)Nc2ccncc2)[C@H]2CCN3C2)c1 (some centres unmarked) [Example 794] |  |  | B (EC1.5 1-25 μM) | ≥ 150 | 
O=C(Nc1cccnc1)N1c2nc(N3CCCC(C(F)(F)F)C3)ccc2N2CC[C@H]1C2 (some centres unmarked) [Example 229] | B (EC1.5 1-25 μM) | ≥ 150 |  |  | 
O=C(Nc1ccccn1)N1c2nc(N3CCCC(C(F)(F)F)C3)ccc2N2CCC[C@H]1C2 (some centres unmarked) [Example 286] | A (EC1.5<1 μM) | ≥ 150 |  |  | 
N#Cc1cccc(-c2ccc3c(n2)N(C(=O)Nc2ccccn2)[C@@H]2CCCN3C2)c1 [Example 225] | B (EC1.5 1-25 μM) | ≥ 150 |  |  | 
NC(=O)c1ccc(NC(=O)N2c3nc(-c4cccc(C(F)(F)F)c4)ccc3N3CC[C@H]2C3)cc1 [Example 659] |  |  | A (EC1.5<1 μM) | ≥ 150 | 
